Article PMC11130353, “Using host-mimicking conditions and a murine cutaneous abscess model to identify synergistic antibiotic combinations effective against Pseudomonas aeruginosa” (Frontiers in Cellular and Infection Microbiology, 2024)
In brackets after ≈: the same amount, converted by molar mass. Like-named read-outs stand apart in the source and are kept apart here.

Legend:
[1] = female, Swiss Webster, mouse, in vivo, sc, 1 day
Procedure: Mice used in this study were female Swiss Webster aged approximately 6-7 weeks and sourced from the University of Otago Biomedical Research Facility. […] Briefly, the fur on the back of each mouse was removed by shaving and chemical depilation. Antibiotics were tested for skin toxicity by injecting 50 μL of antibiotic suspension subcutaneously into naïve mice, and subsequent inspection of the skin for inflammation on the next day. P. aeruginosa LESB58 was grown to mid-log phase in dYT broth, washed twice in sterile PBS (Gibco, pH 7.4), and resuspended in PBS to ~1 x 10^8 CFU per 50 μL inoculum. The bacterial suspension (50 μL) was injected subcutaneously into the right side of the dorsum, followed one hour later by 50 μL of antibiotic treatment injected directly into the infected area. […] Combination treatments were administered as a single 50 μL injection containing both antibiotics. The concentration of each antibiotic in the combination was the same as when it was used alone. Progression of the infection was monitored daily, and abscess dimensions were measured on day three using a calliper. On day three, abscess tissue and pus were excised, homogenized in sterile PBS using SPEX SamplePrep 1600 MiniG for five minutes and bacterial CFU counts determined by serial dilution.

[2] = test system: P. aeruginosa LESB58; assay: microbe, parasite or virus in culture; type: cell-based, Pseudomonas aeruginosa; conditions: for MIC in MHB / MIC in TCM: 20-24 h; for MIC: Pseudomonas aeruginosa; for MIC in TCM: TCM (DMEM + 1% glucose + 5% FBS)
Procedure: (§1) For susceptibility testing under standard conditions, bacteria were cultured in Muller Hinton Broth MHB (Fort Richards Laboratories). […] Further susceptibility testing was also conducted in MHB supplemented with FBS (5% v/v) and DMEM supplemented with glucose (1% w/v) and MHB (10% v/v).
The minimum inhibitory concentration (MIC) of each antibiotic was determined using the broth microdilution method in 96-well plates. […] Briefly, antibiotics were two-fold serially diluted in MHB or TCM prior to adding 1 × 10^6 CFU mL^-1 bacteria. […] The MIC was recorded as the lowest antibiotic concentration with no visible growth and the median value of at least three biological replicates reported.

[3] = test system: P. aeruginosa LESB58-lux; assay: In vitro synergy, checkerboard assay (luminescence readout); type: cell-based, Pseudomonas aeruginosa; conditions: TCM, LESB58-lux
Procedure: (§2) For susceptibility testing under standard conditions, bacteria were cultured in Muller Hinton Broth MHB (Fort Richards Laboratories). Host mimicking conditions in vitro were simulated using tissue culture medium (TCM) consisting of Dulbecco’s modified Eagle medium (DMEM; Gibco #11965) supplemented with FBS (Moregate Biotech) (5% v/v) and glucose (1% w/v). Further susceptibility testing was also conducted in MHB supplemented with FBS (5% v/v) and DMEM supplemented with glucose (1% w/v) and MHB (10% v/v).
The P. aeruginosa LESB58.lux strain was used for in vitro synergy experiments with azithromycin in MHB and all antibiotic combinations in TCM to determine bacterial growth (as visual inspection and absorbance measurements were unreliable). Synergy was determined using the checkerboard method ([Berenbaum, 1978]; [Pletzer and Hancock, 2018]) in at least triplicate. Each antibiotic was two-fold serially diluted in sterile water before transferring to a 96-well plate containing 1 × 10^6 CFU mL^-1 bacteria in MHB or TCM. Plates were incubated at 37°C for 22-24 hours. The MIC alone or in combination was recorded as the lowest antibiotic concentration with no visible growth. For experiments using the LESB58.lux strain no visible growth was defined as an at least 95% reduction compared to the no antibiotic growth control in luminescence detected using a ClarioStar plate reader. The fractional inhibitory concentration index (FICI) was calculated as [(MICA in combination)/MICA] + [(MICB in combination)/MICB]. FICI values of 0.5 or below indicated synergy, while values above 0.5 up to and including 1 were taken to indicate additivity. FICI values above 1 indicate indifference or antagonism ([Odds, 2003]).

[4] = test system: P. aeruginosa LESB58; assay: Minimum bactericidal concentration; type: cell-based; conditions: Pseudomonas aeruginosa
Procedure: as §2
The minimum bactericidal concentration (MBC) was determined by spotting 5 μL from wells of the MIC plate at or above the MIC onto antibiotic free dYT agar. Plates were incubated at 37°C for another 22-24 hours. The MBC was recorded as the lowest antibiotic concentration with no visible growth on agar plates and the median value reported.

[5] = test system: P. aeruginosa PAO1; assay: Minimum inhibitory concentration, broth microdilution; type: cell-based, Pseudomonas aeruginosa; conditions: for MIC: Pseudomonas aeruginosa, PAO1
Procedure: as §1
The minimum inhibitory concentration (MIC) of each antibiotic was determined using the broth microdilution method in 96-well plates. […] Briefly, antibiotics were two-fold serially diluted in MHB or TCM prior to adding 1 × 10^6 CFU mL^-1 bacteria. Plates were incubated at 37°C for 22-24 hours. The MIC was recorded as the lowest antibiotic concentration with no visible growth and the median value of at least three biological replicates reported.

[6] = test system: P. aeruginosa LESB58; assay: Murine high density subcutaneous skin abscess model; type: in vivo, Pseudomonas aeruginosa; conditions: day 3; for Area of dermoncecrosis, Mean: female Swiss Webster mice
Procedure: Mice used in this study were female Swiss Webster aged approximately 6-7 weeks and sourced from the University of Otago Biomedical Research Facility. […] The subcutaneous abscess infection model was performed as previously described ([Pletzer et al., 2017]) with a higher inoculum. Briefly, the fur on the back of each mouse was removed by shaving and chemical depilation. Antibiotics were tested for skin toxicity by injecting 50 μL of antibiotic suspension subcutaneously into naïve mice, and subsequent inspection of the skin for inflammation on the next day. P. aeruginosa LESB58 was grown to mid-log phase in dYT broth, washed twice in sterile PBS (Gibco, pH 7.4), and resuspended in PBS to ~1 x 10^8 CFU per 50 μL inoculum. The bacterial suspension (50 μL) was injected subcutaneously into the right side of the dorsum, followed one hour later by 50 μL of antibiotic treatment injected directly into the infected area. […] Combination treatments were administered as a single 50 μL injection containing both antibiotics. The concentration of each antibiotic in the combination was the same as when it was used alone. Progression of the infection was monitored daily, and abscess dimensions were measured on day three using a calliper. On day three, abscess tissue and pus were excised, homogenized in sterile PBS using SPEX SamplePrep 1600 MiniG for five minutes and bacterial CFU counts determined by serial dilution. In this model, synergy was defined as being a significant difference between the combination treated group and the amalgamated group of single drug treated animals ([Fantin and Carbon, 1992]; [Pletzer et al., 2018]).
Statistical analysis was performed using GraphPad Prism 9.5.1. Bacterial CFU and abscess size data from in vivo experiments was analysed by Kruskal-Wallace test with Dunn’s correction for multiple comparisons. The data was considered significant when p-values were below 0.05 or 0.01 as indicated.

[7] = LESB58, read-out: MIC in MHB, MHB, 20-24 h
[8] = LESB58, read-out: MIC in TCM, TCM (DMEM + 1% glucose + 5% FBS), 20-24 h
[9] = LESB58, TCM (DMEM + 1% glucose + 5% FBS)
[10] = LESB58, TCM (DMEM + 1% Glucose + 10% MHB)
[11] = Colistin, tigecycline and tobramycin groups, compared to the vehicle control

NC(=O)[C@@H]1CC[C@@H]2CN1C(=O)N2OS(=O)(=O)O [AVI, avibactam]
Highest tolerated dose tested [1]: 12 mg/mL
MIC in MHB ([2]; listed as Avibactam): no antimicrobial activity
MIC in MHB ([2]; listed as avibactam): not observed
MIC [2, 7]: > 125 µg/mL
MIC [2, 8]: 31.2 µg/mL
MIC in TCM ([2]; listed as Avibactam): significant antimicrobial activity
MIC in TCM ([2]; listed as avibactam): had anti-pseudomonal activity
Fold decrease in CAZ MIC, drug combined with CAZ [3]: 8
Fold decrease in other MIC, drug combined with CAZ [3]: 4
FICI, drug combined with CAZ ([3]; FICI <= 0.5 indicates synergy): 0.38
MBC ([4]; LESB58, MHB): > 125 µg/mL
MBC [4, 9]: 62.5 µg/mL

CC(C)(O/N=C(\C(=O)N[C@@H]1C(=O)N2C(C(=O)[O-])=C(C[n+]3ccccc3)CS[C@H]12)c1csc(N)n1)C(=O)O [CAZ, ceftazidime]
Highest tolerated dose tested [1]: 50 mg/mL
Toxic (visible skin irritation, inflammation, blood vessels, swelling) [1]: 100 mg/mL
Fold change TCM vs MHB (MIC) ([5]; MIC in TCM vs MIC in MHB): 8
MIC ([5]; read-out: MIC in MHB): 3.13 µg/mL (≈ 5.73 µM)
MIC ([5]; read-out: MIC in TCM): 25 µg/mL (≈ 45.7 µM)
Fold increase MIC of CAZ or CZA ([2]; MHB + 5% FBS compared to MHB): 8
Fold increase MIC of CAZ or CZA ([2]; MHB + 5% FBS compared to MHB, listed as ceftazidime): eight
Fold change TCM vs MHB (MIC) ([2]; MIC in TCM vs MIC in MHB): 4
MIC ([2]; LESB58, MHB + 5% FBS): 250 µg/mL
MIC [2, 10]: 62.5 µg/mL
MIC [2, 7]: 31.2 µg/mL (≈ 57.2 µM)
MIC [2, 8]: 125 µg/mL
Fold increase MIC of CAZ or CZA ([2]; TCM (DMEM + 1% Glucose + 10% MHB) compared to MHB): 2
Fold increase MIC of CAZ or CZA ([2]; TCM (DMEM + 1% Glucose + 10% MHB) compared to MHB, listed as ceftazidime): two
Fold increase MIC of CAZ or CZA ([2]; TCM (DMEM + 1% glucose + 5% FBS) compared to MHB): 4
Fold increase MIC of CAZ or CZA ([2]; TCM (DMEM + 1% glucose + 5% FBS) compared to MHB, listed as ceftazidime): four
MBC ([4]; LESB58, MHB): > 500 µg/mL
MBC ([4]; LESB58, MHB + 5% FBS): > 500 µg/mL
MBC [4, 10]: 500 µg/mL
MBC [4, 9]: > 500 µg/mL
CFU per abscess, Fold change ([6]; Azithromycin group, compared to the vehicle control): -1.4
CFU per abscess, Geometric mean ([6]; Azithromycin group, CAZ or CZA 50 mg/mL, AZM 6.25 mg/mL): 2.6 × 10^8 CFU per abscess
Area of dermoncecrosis, Mean ([6]; Azithromycin group, 50 μL s.c. into infected area 1 h after infection, CAZ or CZA 50 mg/mL, AZM 6.25 mg/mL, vehicle citric acid in saline): 107.3 mm^2
Area of dermoncecrosis, Mean ([6]; Colistin, tigecycline and tobramycin groups (shared vehicle, CAZ and CZA mice), 50 μL s.c. 1 h after infection, CAZ or CZA 50, CST 1.25, TGC 2.5, TOB 2 mg/mL, vehicle 0.9% saline): 85.3 mm^2
Area of dermoncecrosis, % reduction [6, 11]: 9.2%
CFU per abscess, Fold change [6, 11]: -1.8
CFU per abscess, Geometric mean ([6]; Colistin, tigecycline and tobramycin groups): 1.3 × 10^8 CFU per abscess
